From ChEMBL document CHEMBL4138119, “Anti-diabetic activity of fused PPARγ-SIRT1 ligands with limited body-weight gain by mimicking calorie restriction and decreasing SGK1 expression” (Eur J Med Chem, 2017)
The source made the active and inactive calls. The rule behind the calls is not given here.

Columns and labels:
[1] = biological target: T1, Peroxisome proliferator-activated receptor gamma (Homo sapiens, UniProt P37231); test: Transactivation of human Gal4-fused PPARgamma LBD expressed in African green monkey COS7 cells after 24 hrs by luciferase reporter gene assay; assay type: cell-based
T1 sequence (P37231 whole entry): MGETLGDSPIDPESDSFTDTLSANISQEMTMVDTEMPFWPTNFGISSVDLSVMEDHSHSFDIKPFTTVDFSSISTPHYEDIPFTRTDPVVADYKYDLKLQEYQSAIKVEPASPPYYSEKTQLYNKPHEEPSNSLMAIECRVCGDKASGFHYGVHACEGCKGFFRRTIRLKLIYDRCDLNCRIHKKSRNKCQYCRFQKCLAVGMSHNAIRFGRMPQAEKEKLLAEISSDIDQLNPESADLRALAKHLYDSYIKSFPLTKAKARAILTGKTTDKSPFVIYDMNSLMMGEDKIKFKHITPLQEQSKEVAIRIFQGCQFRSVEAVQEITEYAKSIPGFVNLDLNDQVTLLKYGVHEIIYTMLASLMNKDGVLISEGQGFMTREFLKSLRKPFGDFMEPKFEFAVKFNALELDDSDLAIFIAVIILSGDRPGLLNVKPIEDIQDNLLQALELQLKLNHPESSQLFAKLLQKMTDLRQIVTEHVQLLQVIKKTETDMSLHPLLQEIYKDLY

Mus musculus [2] = test: Anti-diabetic activity in ob/ob mouse assessed as change in serum insulin levels at 8.4 uM/kg administered via oral gavage daily for 4 days measured on day 5 relative to control; assay type: functional
Mus musculus [3] = test: Anti-diabetic activity in ob/ob mouse assessed as change in serum triglyceride levels at 8.4 uM/kg administered via oral gavage daily for 4 days measured on day 5 relative to control; assay type: functional
Mus musculus [4] = test: Toxicity in ob/ob mouse assessed as change in body weight at 8.4 uM/kg administered via oral gavage daily for 4 days measured on day 5 relative to control; assay type: organism-based; conditions: in vivo, 96 h, 8.4 µmol/kg
[5] = biological target: T2, Peroxisome proliferator-activated receptor alpha (Homo sapiens) (UniProt Q07869); test: Transactivation of human Gal4-fused PPARalpha LBD expressed in African green monkey COS7 cells after 24 hrs by luciferase reporter gene assay relative to WY14643; assay type: cell-based
T2 sequence (whole entry): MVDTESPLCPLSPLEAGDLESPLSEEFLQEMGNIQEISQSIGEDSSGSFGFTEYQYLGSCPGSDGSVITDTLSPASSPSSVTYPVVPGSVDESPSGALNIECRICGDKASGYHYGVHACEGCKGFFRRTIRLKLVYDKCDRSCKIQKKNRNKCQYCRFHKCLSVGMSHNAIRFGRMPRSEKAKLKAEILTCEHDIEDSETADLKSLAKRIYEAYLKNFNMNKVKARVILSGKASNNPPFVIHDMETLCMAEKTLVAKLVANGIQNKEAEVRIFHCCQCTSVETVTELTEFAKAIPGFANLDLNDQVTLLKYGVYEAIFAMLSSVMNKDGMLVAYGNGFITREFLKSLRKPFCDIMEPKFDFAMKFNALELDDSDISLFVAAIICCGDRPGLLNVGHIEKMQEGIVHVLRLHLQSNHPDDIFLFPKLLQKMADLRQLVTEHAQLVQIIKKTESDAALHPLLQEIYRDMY

[6] = biological target: T3, Peroxisome proliferator-activated receptor delta (Homo sapiens) (UniProt Q03181); test: Transactivation of human PPARdelta at 10 uM
T3 sequence (whole entry): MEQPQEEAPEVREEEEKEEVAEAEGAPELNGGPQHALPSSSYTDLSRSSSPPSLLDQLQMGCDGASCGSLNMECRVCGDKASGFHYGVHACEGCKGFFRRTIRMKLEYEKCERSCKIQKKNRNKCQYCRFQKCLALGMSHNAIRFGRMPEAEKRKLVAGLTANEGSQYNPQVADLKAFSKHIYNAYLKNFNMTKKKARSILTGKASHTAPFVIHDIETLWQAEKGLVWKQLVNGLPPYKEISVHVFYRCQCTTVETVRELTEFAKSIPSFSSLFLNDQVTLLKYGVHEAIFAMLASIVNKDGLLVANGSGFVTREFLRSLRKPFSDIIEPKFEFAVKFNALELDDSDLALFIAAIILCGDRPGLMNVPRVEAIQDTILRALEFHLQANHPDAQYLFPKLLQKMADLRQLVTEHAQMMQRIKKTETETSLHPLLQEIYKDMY

Mus musculus [7] = test: Anti-diabetic activity in ob/ob mouse assessed as change in serum glucose levels at 8.4 uM/kg administered via oral gavage daily for 4 days measured on day 5 relative to control; assay type: functional
[8] = biological target: T4, Peroxisome proliferator-activated receptor alpha (Homo sapiens, UniProt Q07869); test: Transactivation of human Gal4-fused PPARalpha LBD expressed in African green monkey COS7 cells after 24 hrs by luciferase reporter gene assay; assay type: cell-based
T4 sequence (Q07869 whole entry): T2 sequence (whole entry)

[9] = Modulation of SGK1 mRNA expression in HCCD cells at 20 uM after 24 hrs by RT-PCR method relative to control; assay type: functional, Homo sapiens
[10] = biological target: T5, NAD-dependent protein deacetylase sirtuin-1 (Homo sapiens) (UniProt Q96EB6); test: Activation of recombinant human SIRT1 at 10 uM using C-terminal AMC labeled Arg-His-Lys-Lys (Ac) as substrate after 30 mins by FLUOR DE LYS fluorescent assay relative to control
T5 sequence (whole entry): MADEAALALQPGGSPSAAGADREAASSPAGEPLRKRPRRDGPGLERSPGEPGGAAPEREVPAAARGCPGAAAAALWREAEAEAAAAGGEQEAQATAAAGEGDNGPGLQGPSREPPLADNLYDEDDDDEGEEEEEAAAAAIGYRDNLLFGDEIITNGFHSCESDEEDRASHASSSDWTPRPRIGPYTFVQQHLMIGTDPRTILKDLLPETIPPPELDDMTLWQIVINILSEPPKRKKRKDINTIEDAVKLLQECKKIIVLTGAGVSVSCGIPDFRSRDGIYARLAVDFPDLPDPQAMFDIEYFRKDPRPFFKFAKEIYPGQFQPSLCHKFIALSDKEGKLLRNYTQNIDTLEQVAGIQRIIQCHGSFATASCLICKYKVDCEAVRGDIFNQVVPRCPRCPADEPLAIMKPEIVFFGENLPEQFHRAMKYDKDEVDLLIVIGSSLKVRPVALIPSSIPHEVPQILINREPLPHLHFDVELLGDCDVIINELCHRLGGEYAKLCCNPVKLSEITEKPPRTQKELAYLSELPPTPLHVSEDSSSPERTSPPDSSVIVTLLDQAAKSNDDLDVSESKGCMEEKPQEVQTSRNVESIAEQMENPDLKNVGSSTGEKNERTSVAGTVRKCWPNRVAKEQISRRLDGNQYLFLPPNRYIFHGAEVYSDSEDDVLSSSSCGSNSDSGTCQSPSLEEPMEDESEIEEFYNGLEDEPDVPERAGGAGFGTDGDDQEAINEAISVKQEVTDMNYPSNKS

Row | SMILES | EC50 [1] | Activity (Mus musculus [2]) | Activity (Mus musculus [3]) | Activity (Mus musculus [4]) | Emax [5] | Activity [6] | EC50 ([1]; read-out: EC50) | Activity (Mus musculus [7]) | EC50 [8] | Activity [9] | Activity [10]
1 | Cc1cccc(Nc2cc(Cl)nc(SCC(=O)O)n2)c1C [PIRINIXIC ACID] | Not Active |  |  |  |  |  |  |  |  |  | 
2 | CCOC(Cc1ccc(OCCn2c(=O)sc3cc(/C=C/c4cc(OC)cc(OC)c4)ccc32)cc1)C(=O)O (centres undefined) |  | -33% | -56% | 192% | 494% | inactive | < 10 nM | -42% | 1000 nM |  | 
3 | CCOC(Cc1ccc(OCCn2c(=O)sc3cc(C(=O)/C=C/c4cc(OC)cc(OC)c4)ccc32)cc1)C(=O)O (centres undefined) |  | 18% | -31% | 150% | 53% | inactive | 1000 nM | -27% | 10000 nM | 736% | 23%
4 | CCOC(Cc1ccc(OCCn2c(=O)sc3cc(/C=C/c4cc(OC)cc(OC)c4)ccc32)cc1)C(=O)NC (centres undefined) |  | -36% | -29% | 111% | 0% | inactive | < 10 nM | -14% | 10000 nM | -43% | 17%
5 | CCOC(Cc1ccc(OCCn2c(=O)sc3cc(/C=C/c4cc(O)cc(O)c4)ccc32)cc1)C(=O)O (centres undefined) |  | -40% | -52% | 110% | 29% | inactive | 1000 nM | -45% | 10000 nM | -39% | 92%
6 | CCOC(=O)C(Cc1ccc(OCCn2c(=O)sc3cc(C(=O)/C=C/c4cc(O)cc(O)c4)ccc32)cc1)OCC (centres undefined) |  | -4% | -28% | 91% | 42% | inactive | 20 nM | -30% | 10000 nM | 243% | 0%
7 | CCOC(Cc1ccc(OCCn2c(=O)sc3cc(/C=C/c4cc(OC)cc(OC)c4)ccc32)cc1)C(N)=O (centres undefined) |  | -26% | -32% | 158% | 35% | inactive | < 10 nM | -27% | 1000 nM | -43% | -12%
8 | CCOC(=O)C(Cc1ccc(OCCn2c(=O)sc3cc(/C=C/c4cc(OC)cc(OC)c4)ccc32)cc1)OCC (centres undefined) |  | -28% | -35% | 79% | 149% | inactive | < 10 nM | -36% | 2000 nM | -23% | 13%
9 | CCOC(=O)C(Cc1ccc(OCCn2c(=O)sc3cc(/C=C/c4cc(OC)cc(OC)c4)ccc32)cc1)OCC(F)(F)F (centres undefined) |  | -14% | -3% | 61% | 136% | inactive | 50 nM | -11% | 10000 nM | -62% | -7%
10 | CCOC(=O)C(Cc1ccc(OCCn2c(=O)sc3cc(C(=O)/C=C/c4cc(OC)cc(OC)c4)ccc32)cc1)OCC(F)(F)F (centres undefined) |  | 17% | -24% | 93% | 21% | inactive | 200 nM | 2% | 10000 nM | -53% | 0%
11 | CCOC(=O)C(Cc1ccc(OCCn2c(=O)sc3cc(C(=O)/C=C/c4cc(O)cc(O)c4)ccc32)cc1)OCC(F)(F)F (centres undefined) |  | 11% | -8% | 75% | 12% | inactive | 30 nM | -5% | 10000 nM | 180% | 24%
12 | COc1cc(/C=C/c2ccc3c(c2)sc(=O)n3CCOc2ccc(CC(OCC(F)(F)F)C(=O)O)cc2)cc(OC)c1 (centres undefined) |  | -61% | -23% | 81% | 170% | inactive | 20 nM | -36% | 300 nM | 89% | -4%
13 | CCOC(=O)C(Cc1ccc(OCCn2c(=O)sc3cc(/C=C/c4cc(O)cc(O)c4)ccc32)cc1)OCC(F)(F)F (centres undefined) |  | -41% | -25% | 56% | 149% | inactive | 80 nM | -40% | 10000 nM | 83% | -28%
14 | O=C(O)C(Cc1ccc(OCCn2c(=O)sc3cc(/C=C/c4cc(O)cc(O)c4)ccc32)cc1)OCC(F)(F)F (centres undefined) |  | -43% | -39% | 32% | 100% | inactive | 200 nM | -40% | 10000 nM | -57% | 128%
15 | COc1cc(/C=C/C(=O)c2ccc3c(c2)sc(=O)n3CCOc2ccc(CC(OCC(F)(F)F)C(=O)O)cc2)cc(OC)c1 (centres undefined) |  | 28% | -18% | 142% | 36% | inactive | 1000 nM | -14% | 10000 nM | 820% | 24%
16 | CCOC(=O)C(Cc1ccc(OCCn2c(=O)sc3cc(/C=C/c4cc(O)cc(O)c4)ccc32)cc1)OCC (centres undefined) |  | -37% | -19% | 49% | 76% | inactive | 10 nM | -35% | 10000 nM | 134% | 59%
